Reference: ChEMBL document CHEMBL1137948, “The design and synthesis of sulfonamides as caspase-1 inhibitors” (Bioorg Med Chem Lett, 2004)

Biological target: T1, Caspase-1 (Homo sapiens, UniProt P29466)
T1 sequence (P29466 whole entry): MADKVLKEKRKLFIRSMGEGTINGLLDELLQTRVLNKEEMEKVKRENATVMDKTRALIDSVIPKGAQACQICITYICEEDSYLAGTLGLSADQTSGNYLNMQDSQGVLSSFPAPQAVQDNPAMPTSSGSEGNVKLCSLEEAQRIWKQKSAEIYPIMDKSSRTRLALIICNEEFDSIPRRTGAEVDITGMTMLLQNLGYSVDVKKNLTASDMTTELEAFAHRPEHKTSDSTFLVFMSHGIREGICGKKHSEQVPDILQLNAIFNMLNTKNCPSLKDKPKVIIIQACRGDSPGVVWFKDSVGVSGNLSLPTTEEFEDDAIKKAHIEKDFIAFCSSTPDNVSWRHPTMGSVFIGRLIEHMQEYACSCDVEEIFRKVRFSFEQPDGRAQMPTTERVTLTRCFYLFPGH
Test: (§1) Inhibitory activity against caspase-1

In order of rising IC50:
1. CC(=O)N[C@@H](Cc1ccc(O)cc1)C(=O)N[C@@H](CCC(=O)O)C(=O)N[C@@H](C)C(=O)NC(CC(=O)O)C(=O)CNS(=O)(=O)CCc1ccccc1 (some centres undefined)  0.0034 µM
2. C[C@H](NC(=O)[C@H](CCC(=O)O)NC(=O)OCc1ccccc1)C(=O)NC(CC(=O)O)C(=O)CNS(=O)(=O)CCc1ccccc1 (some centres undefined)  0.0253 µM
3. CC(=O)N[C@@H](Cc1ccc(O)cc1)C(=O)N[C@H](C(=O)N[C@@H](C)C(=O)NC(CC(=O)O)C(=O)CCCCCc1ccccc1)C(C)C (some centres undefined)  0.071 µM
4. CC(C)[C@H](NC(=O)OCc1ccccc1)C(=O)N[C@@H](C)C(=O)NC(CC(=O)O)C(=O)CNS(=O)(=O)CCc1ccccc1 (some centres undefined)  0.072 µM
5. CC(C)[C@H](NC(=O)OCc1ccccc1)C(=O)N[C@@H](C)C(=O)NC(CC(=O)O)C(=O)CCCCCc1ccccc1 (some centres undefined)  0.976 µM
6. O=C(O)CC(NC(=O)OCc1ccccc1)C(=O)CNS(=O)(=O)Cc1ccccc1 (centres undefined)  168 µM
7. O=C(O)CC(NC(=O)OCc1ccccc1)C(=O)CCCCCc1ccccc1 (centres undefined)  1030 µM

In order of rising Ki:
1. CC(C)[C@H](NC(=O)OCc1ccccc1)C(=O)N[C@@H](C)C(=O)NC(CC(=O)O)C(=O)CNS(=O)(=O)CCc1ccccc1 (some centres undefined)  0.004 µM
2. CC(=O)N[C@@H](Cc1ccc(O)cc1)C(=O)N[C@@H](CCC(=O)O)C(=O)N[C@@H](C)C(=O)NC(CC(=O)O)C(=O)CNS(=O)(=O)CCc1ccccc1 (some centres undefined)  0.004 µM
3. CC(=O)N[C@@H](Cc1ccc(O)cc1)C(=O)N[C@H](C(=O)N[C@@H](C)C(=O)NC(CC(=O)O)C(=O)CCCCCc1ccccc1)C(C)C (some centres undefined)  0.014 µM
4. C[C@H](NC(=O)[C@H](CCC(=O)O)NC(=O)OCc1ccccc1)C(=O)NC(CC(=O)O)C(=O)CNS(=O)(=O)CCc1ccccc1 (some centres undefined)  0.0239 µM
5. CC(C)[C@H](NC(=O)OCc1ccccc1)C(=O)N[C@@H](C)C(=O)NC(CC(=O)O)C(=O)CCCCCc1ccccc1 (some centres undefined)  0.134 µM
6. O=C(O)CC(NC(=O)OCc1ccccc1)C(=O)CCCCCc1ccccc1 (centres undefined)  119 µM

Biological target: not listed separately
Test: as §1

`O=C(O)CC(NC(=O)OCc1ccccc1)C(=O)CNS(=O)(=O)Cc1ccccc1` (centres undefined) showed a Ki of 18 µM.
